Marks after values point to notes of the source that are not given here. Where a SMILES comes first, the peptide text is derived from it. Bridges are numbered along the chain shown (N, C = ends). The star is where a group is joined. CH3O(CH2CH2O)11CH2CH2CO = COCCOCCOCCOCCOCCOCCOCCOCCOCCOCCOCCOCCC(=O)*
Legend:
[1] = biological target: neutral endopeptidase (NEP) (Homo sapiens, UniProt P08473); assay: in vitro; conditions: human, pH 7
Method in brief: (§1)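 Recombinant human NEP (1 ug/mL final) incubated with 100 uM CNP variant in 0.1 M Tris, pH 7, at 37° C for various times, then quenched with EDTA (10 mM final) and heat. Samples reduced and analysed by HPLC and mass spectrometry. Half-life derived from loss of intact variant over time.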

Recombinant human NEP = Recombinant human NEP (Homo sapiens, UniProt P08473); assay: in vitro NEP cleavage assay (disappearance of non-cleaved CNP variant)
Method in brief: as §1

[2] = IgG assay (immunogenicity) in mice
Procedure: An IgG assay was performed to assess whether an IgG immune response was triggered by 5 week exposure of achondroplastic FGFR3^ach mice to CNP22, CNP37 or PEO24-GANRR-CNP22(K4R) (“CNP27-PEO24”) (SEQ ID NO: 36). IgG is the most predominant immunoglobulin in mouse and human serum and is produced as part of the secondary immune response to an antigen. The IgG response to administration of the CNP peptides was determined as follows. 96-well plates were coated with 100 ng/mL CNP22, CNP37 or PEO24-GANRR-CNP22(K4R) (SEQ ID NO: 36) in BupH PBS buffer (Pierce/Thermo, Cat. No. 28372, Rockford, Ill.). After overnight incubation, plates were blocked with Casein-PBS blocking buffer (Pierce/Thermo, Cat. No. 37528) for two hours at room temperature with shaking at 300 rpm. After washing with wash buffer (1×PBS with 0.05% Tween), diluted serum samples from a terminal bleed (diluted 1:25) were added to the plate. Positive and negative controls were also loaded onto the plate. Positive control was 1:25 diluted serum (pooled from 6 individual FVB mice) with anti-CNP22 antibody added (Bachem rabbit anti-CNP22 IgG, Cat. No. T-4222) at 1:1000 dilution. Negative control was the diluted pooled serum. After two hours of incubation, the plates were washed and secondary antibody diluted in blocking buffer was added to the wells. For the mouse serum samples, anti-mouse IgG Fcγ (peroxidase-conjugated affinipure goat anti-mouse IgG, Fcγ fragment, Cat. No. 115-035-071, Jackson Immunoresearch, West Grove, Pa.) was added at a 1:10,000 dilution. For the positive and negative controls, anti-rabbit IgG-HRP (Santa Cruz Biotechnology, Cat. No. SC-2004, Santa Cruz, Calif.) was added to blocking buffer. After two hours of incubation at room temperature with shaking at 300 rpm, plates were washed with wash buffer. 100 uL of TMB (One-step TMB, Pierce/Thermo, Cat. No. 34022) was added to all wells. Plates were incubated at room temperature for 15 minutes with shaking at 300 rpm. Colorimetric reactions were stopped by the addition of 100 uL of 2 N H2SO4. Plates were read at 450 nm (Spectramax, Molecular Devices, Sunnyvale, Calif.) and data was analyzed using SoftMax Pro software (Molecular Devices).
The immunogenic response of wild-type mice administered G-CNP37, PEO12-GANRR-CNP22(K4R) (SEQ ID NO: 36) or Pro-Gly-CNP37, as measured by an increase in serum IgG level, was also assessed by examining terminal bleed serum samples as described above.

wild-type FVB mice = assay: efficacy of CNP variants on bone growth in wild-type mice; format: in vivo, mouse; conditions: 200 nmol/kg s.c. once daily for 5 weeks
Procedure: The in vivo effects of CNP variants on bone growth were assessed in wild-type mice. Three week old FVB wild-type male mice received daily subcutaneous (s.c.) injection of either vehicle, G-CNP37 (200 nmol/kg) or […]”) (SEQ ID NO: 36) (200 nmol/kg) for 5 weeks. Body weight was measured at least once weekly. Tail length was measured at least once weekly using digital caliper readings, and body length (naso-anal length), bone length (tibia, femur, ulna and humerus), skull length (anterior to posterior cranial segment) and lumbar vertebrae 5 (LV5) length were measured after 5 weeks of treatment using a caliper. X-rays were taken at baseline and after 5 weeks of treatment. […] In another study, various dosing regimens of Pro-Gly-CNP37 were administered for nine weeks followed by one week of recovery. Wild-type FVB mice were dosed s.c. with: • (1) vehicle daily for nine weeks, followed by one week of recovery; • (2) 20 nmol/kg Pro -Gly-CNP37 daily for one week, followed by three doses per week for eight weeks and one week of recovery; • (3) 20 nmol/kg Pro-Gly-CNP37 on alternating weeks; or • (4) 5 nmol/kg Pro-Gly-CNP37 daily for nine weeks followed by one week of recovery.

NPR-C = NPR-C (Homo sapiens, UniProt P17342); conditions: read-out: affinity to NPR-C; cited from earlier work
[3] = pharmacokinetics in rats (plasma CNP immunoreactivity by RIA); format: in vivo, rat
Procedure: Recombinant wild-type CNP22, CNP37 and PEO24-GANRR-CNP22 […]) (SEQ ID NO: 36) were evaluated. […] Standard and QC samples were prepared. […] Plasma CNP immunoreactivity was employed for pharmacokinetics (PK) analysis. PK analysis was performed using WINNONLIN® Professional (Pharsight Corporation).

NPR-B = NPR-B (Homo sapiens, UniProt P20594); conditions: read-out: affinity to NPR-B; cited from earlier work
[4] = normal human; cited from earlier work
[5] = biological target: NPR-B (natriuretic peptide receptor B), murine, expressed endogenously on NIH3T3 cells (murine) (UniProt Q6VVW5); assay: cell-based or functional assay
NPR-B (natriuretic peptide receptor B), murine, expressed endogenously on NIH3T3 cells (murine), sequence (Q6VVW5 17-1047): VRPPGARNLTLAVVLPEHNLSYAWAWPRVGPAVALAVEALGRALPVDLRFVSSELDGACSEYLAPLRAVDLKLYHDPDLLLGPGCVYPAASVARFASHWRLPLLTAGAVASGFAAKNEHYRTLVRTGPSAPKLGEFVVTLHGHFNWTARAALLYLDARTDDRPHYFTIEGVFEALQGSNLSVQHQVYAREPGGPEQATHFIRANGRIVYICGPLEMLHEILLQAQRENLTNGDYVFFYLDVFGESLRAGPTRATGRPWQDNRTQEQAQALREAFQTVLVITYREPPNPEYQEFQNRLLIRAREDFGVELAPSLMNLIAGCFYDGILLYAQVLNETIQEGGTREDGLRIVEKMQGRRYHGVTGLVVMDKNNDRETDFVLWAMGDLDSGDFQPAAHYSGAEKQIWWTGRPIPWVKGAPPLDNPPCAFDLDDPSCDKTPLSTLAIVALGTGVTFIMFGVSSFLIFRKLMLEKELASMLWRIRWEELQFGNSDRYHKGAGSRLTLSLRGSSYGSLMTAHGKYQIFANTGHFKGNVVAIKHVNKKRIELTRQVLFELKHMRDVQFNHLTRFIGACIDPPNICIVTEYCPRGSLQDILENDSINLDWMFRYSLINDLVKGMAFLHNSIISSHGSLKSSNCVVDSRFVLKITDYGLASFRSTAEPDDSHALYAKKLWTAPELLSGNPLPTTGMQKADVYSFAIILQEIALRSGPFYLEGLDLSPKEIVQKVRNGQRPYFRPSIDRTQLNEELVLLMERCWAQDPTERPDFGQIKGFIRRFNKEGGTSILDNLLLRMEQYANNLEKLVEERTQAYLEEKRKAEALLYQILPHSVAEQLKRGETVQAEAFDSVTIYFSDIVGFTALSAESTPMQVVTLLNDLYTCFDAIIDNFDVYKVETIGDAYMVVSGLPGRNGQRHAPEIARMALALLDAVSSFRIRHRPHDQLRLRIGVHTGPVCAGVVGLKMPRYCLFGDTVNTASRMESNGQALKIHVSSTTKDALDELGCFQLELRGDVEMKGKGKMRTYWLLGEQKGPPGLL

Recombinant human NEP, sequence (P08473 whole entry): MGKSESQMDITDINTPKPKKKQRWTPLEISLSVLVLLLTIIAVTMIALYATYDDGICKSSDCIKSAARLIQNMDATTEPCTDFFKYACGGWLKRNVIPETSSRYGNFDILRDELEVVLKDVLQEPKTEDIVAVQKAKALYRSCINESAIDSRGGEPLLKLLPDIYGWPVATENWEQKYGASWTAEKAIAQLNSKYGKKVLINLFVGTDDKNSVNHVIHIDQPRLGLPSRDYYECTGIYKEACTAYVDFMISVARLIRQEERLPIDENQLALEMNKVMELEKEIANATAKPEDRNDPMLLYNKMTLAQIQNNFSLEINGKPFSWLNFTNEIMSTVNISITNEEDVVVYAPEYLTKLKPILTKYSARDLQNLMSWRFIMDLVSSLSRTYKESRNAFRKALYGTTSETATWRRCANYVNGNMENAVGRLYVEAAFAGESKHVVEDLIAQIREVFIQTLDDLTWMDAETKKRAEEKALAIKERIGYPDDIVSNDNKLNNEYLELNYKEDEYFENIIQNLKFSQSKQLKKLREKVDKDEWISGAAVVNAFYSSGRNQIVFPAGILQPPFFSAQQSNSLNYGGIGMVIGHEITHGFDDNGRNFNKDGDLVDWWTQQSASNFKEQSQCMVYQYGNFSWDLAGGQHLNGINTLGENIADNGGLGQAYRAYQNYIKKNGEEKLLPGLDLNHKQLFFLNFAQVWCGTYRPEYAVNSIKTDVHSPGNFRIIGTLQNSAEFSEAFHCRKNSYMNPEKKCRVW
neutral endopeptidase (NEP), sequence (P08473 whole entry): as above
NPR-B, sequence (P20594 23-1047, species assumed): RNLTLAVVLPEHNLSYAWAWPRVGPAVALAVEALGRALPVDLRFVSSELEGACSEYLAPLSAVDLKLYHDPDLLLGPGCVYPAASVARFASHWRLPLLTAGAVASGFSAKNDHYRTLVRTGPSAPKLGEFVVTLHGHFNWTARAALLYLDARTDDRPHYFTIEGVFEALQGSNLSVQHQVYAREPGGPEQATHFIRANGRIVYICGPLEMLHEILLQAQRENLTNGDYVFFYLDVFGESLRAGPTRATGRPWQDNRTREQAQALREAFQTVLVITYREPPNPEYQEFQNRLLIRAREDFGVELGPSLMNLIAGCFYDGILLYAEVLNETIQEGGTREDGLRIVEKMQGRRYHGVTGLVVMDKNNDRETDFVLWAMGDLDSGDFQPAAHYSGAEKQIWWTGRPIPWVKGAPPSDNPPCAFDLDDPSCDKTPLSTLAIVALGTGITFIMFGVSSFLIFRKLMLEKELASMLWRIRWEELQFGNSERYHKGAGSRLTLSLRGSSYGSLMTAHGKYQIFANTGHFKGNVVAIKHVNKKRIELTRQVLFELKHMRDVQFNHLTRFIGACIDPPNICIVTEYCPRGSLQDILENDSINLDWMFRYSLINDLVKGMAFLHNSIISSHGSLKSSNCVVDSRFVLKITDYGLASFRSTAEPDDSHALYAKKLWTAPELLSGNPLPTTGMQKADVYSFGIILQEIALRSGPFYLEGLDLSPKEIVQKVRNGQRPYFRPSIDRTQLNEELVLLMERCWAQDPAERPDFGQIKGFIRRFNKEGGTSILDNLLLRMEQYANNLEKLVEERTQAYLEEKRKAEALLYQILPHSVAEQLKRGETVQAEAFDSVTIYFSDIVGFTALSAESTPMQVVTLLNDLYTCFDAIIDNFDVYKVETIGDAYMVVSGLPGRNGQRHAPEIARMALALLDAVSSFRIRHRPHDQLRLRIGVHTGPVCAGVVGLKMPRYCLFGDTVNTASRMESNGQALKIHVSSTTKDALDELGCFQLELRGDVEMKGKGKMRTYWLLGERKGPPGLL
NPR-C, sequence (P17342 27-541, species assumed): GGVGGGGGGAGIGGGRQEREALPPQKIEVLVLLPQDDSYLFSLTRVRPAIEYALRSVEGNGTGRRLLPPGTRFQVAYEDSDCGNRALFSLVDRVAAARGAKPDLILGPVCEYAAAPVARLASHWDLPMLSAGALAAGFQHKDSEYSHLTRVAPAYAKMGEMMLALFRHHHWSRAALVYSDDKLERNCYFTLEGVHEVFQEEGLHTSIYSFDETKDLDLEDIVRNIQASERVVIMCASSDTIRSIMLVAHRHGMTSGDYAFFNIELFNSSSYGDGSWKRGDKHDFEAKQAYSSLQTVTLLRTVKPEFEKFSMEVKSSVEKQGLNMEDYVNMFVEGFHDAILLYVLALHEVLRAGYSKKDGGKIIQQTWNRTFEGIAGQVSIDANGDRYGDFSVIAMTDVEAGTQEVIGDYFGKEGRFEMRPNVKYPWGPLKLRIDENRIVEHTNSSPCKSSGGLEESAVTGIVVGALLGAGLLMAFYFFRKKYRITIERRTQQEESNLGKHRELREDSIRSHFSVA

For `CC[C@H](C)[C@@H]1NC(=O)[C@H](CCCNC(=N)N)NC(=O)[C@H](CC(=O)O)NC(=O)[C@H](CC(C)C)NC(=O)[C@H](CCCCN)NC(=O)[C@H](CC(C)C)NC(=O)CNC(=O)[C@H](Cc2ccccc2)NC(=O)[C@@H](NC(=O)CNC(=O)[C@H](CCCCN)NC(=O)[C@H](CO)NC(=O)[C@H](CC(C)C)NC(=O)CNC(=O)[C@H](CCCCN)NC(=O)[C@H](CCCCN)NC(=O)[C@H](CC(N)=O)NC(=O)[C@H](C)NC(=O)CNC(=O)[C@H](CCCCN)NC(=O)[C@H](Cc2ccc(O)cc2)NC(=O)[C@H](CCCCN)NC(=O)[C@H](CCCNC(=N)N)NC(=O)[C@H](C)NC(=O)[C@H](CC(N)=O)NC(=O)[C@@H]2CCCN2C(=O)[C@H](Cc2c[nH]cn2)NC(=O)[C@H](CCC(=O)O)NC(=O)[C@H](CCC(N)=O)NC(=O)CN)CSSC[C@@H](C(=O)O)NC(=O)CNC(=O)[C@H](CC(C)C)NC(=O)CNC(=O)[C@H](CO)NC(=O)[C@H](CCSC)NC(=O)[C@H](CO)NC(=O)CNC1=O` [Analog DB], the half-life at 100 uM [1] was > 160 min, the “resistance to NEP cleavage (in words)” value (Recombinant human NEP) was “completely resistant to NEP cleavage” and the IgG immune response ([2]; mouse, in vivo) was “one out of six”.

In the case of `CC[C@H](C)[C@@H]1NC(=O)[C@H](CCCNC(=N)N)NC(=O)[C@H](CC(=O)O)NC(=O)[C@H](CC(C)C)NC(=O)[C@H](CCCCN)NC(=O)[C@H](CC(C)C)NC(=O)CNC(=O)[C@H](Cc2ccccc2)NC(=O)[C@@H](NC(=O)CNC(=O)[C@H](CCCNC(=N)N)NC(=O)[C@H](CO)NC(=O)[C@H](CC(C)C)NC(=O)CNC(=O)[C@H](CCCNC(=N)N)NC(=O)[C@H](CCCNC(=N)N)NC(=O)[C@H](CC(N)=O)NC(=O)[C@H](C)NC(=O)CNC(=O)CCOCCOCCOCCOCCOCCOCCOCCOCCOCCOCCOCCOC)CSSC[C@@H](C(=O)O)NC(=O)CNC(=O)[C@H](CC(C)C)NC(=O)CNC(=O)[C@H](CO)NC(=O)[C@H](CCSC)NC(=O)[C@H](CO)NC(=O)CNC1=O` [PEO12-GANRR-CNP22(K4R)] ({CH3O(CH2CH2O)11CH2CH2CO}-GANRRGLSRGCFGLKLDRIGSMSGLGC-OH; disulfide 11-27; C-terminus assumed), the “resistance to NEP cleavage (in words)” value (Recombinant human NEP) is reported as “much greater stability to NEP degradation compared to wtCNP22”, the IgG immune response ([2]; mouse, in vivo) is reported as “None of the wild-type mice” and the “Anterior to Posterior (Skull) length, relative to vehicle = 100%” value (wild-type FVB mice) is reported as 101%. For the same compound, the “Femur length, relative to vehicle = 100%” value (wild-type FVB mice) was 102%*, the “Humerus length, relative to vehicle = 100%” value (wild-type FVB mice) was 102%* and the “LV5 length, relative to vehicle = 100%” value (wild-type FVB mice) was 103%. The “Naso-Anal (body) length, relative to vehicle = 100%” value (wild-type FVB mice) was 104%**, the “Tail length, relative to vehicle = 100%” value (wild-type FVB mice) was 101% and the “Tibia length, relative to vehicle = 100%” value (wild-type FVB mice) was 100%. The “Ulna length, relative to vehicle = 100%” value (wild-type FVB mice) was 96%*.

For `CC[C@H](C)[C@@H]1NC(=O)[C@H](CCCNC(=N)N)NC(=O)[C@H](CC(=O)O)NC(=O)[C@H](CC(C)C)NC(=O)[C@H](CCCCN)NC(=O)[C@H](CC(C)C)NC(=O)CNC(=O)[C@H](Cc2ccccc2)NC(=O)[C@@H](NC(=O)CNC(=O)[C@H](CCCCN)NC(=O)[C@H](CO)NC(=O)[C@H](CC(C)C)NC(=O)CN)CSSC[C@@H](C(=O)O)NC(=O)CNC(=O)[C@H](CC(C)C)NC(=O)CNC(=O)[C@H](CO)NC(=O)[C@H](CCSC)NC(=O)[C@H](CO)NC(=O)CNC1=O` [CNP22, reference compound], the “NEP Cleavage (t1/2, min)” value (Recombinant human NEP; 100 uM peptide, 1 ug/mL NEP, 0.1 M Tris pH 7, 37° C., adjusted t1/2, CNP22 normalized to 80 min) is given as 80 min, the IgG immune response ([2]; FGFR3^ach mice, 5 week exposure, 200 nmol/kg) is given as “no positive IgG immune response in any of the mice” and the Kd (NPR-C) is given as 0.011 to 0.14 nM. The “area under the curve, AUC (pmol·min/mL)” value ([3]; i.v. 20 nmol/kg) was 320 (±54) pmol·min/mL, the bioavailability ([3]; s.c. 50 nmol/kg) was 19% and the Kd (NPR-B) was 0.007 to 0.03 nM. For the same compound, the “in vivo (plasma) half-life” value [4] was 2.6 min.

“ANP (atrial natriuretic peptide) (from UniProt P01160 124-151)” gave a cGMP response rel. to 1 uM CNP22; 10 nM peptide, NIH3T3 cells (rel. to 1 uM CNP22 (100)) [5] of 10 and a cGMP response rel. to 1 uM CNP22; 1 uM peptide, NIH3T3 cells (rel. to 1 uM CNP22 (100)) [5] of 23.

`CC[C@H](C)[C@@H]1NC(=O)[C@H](CCCNC(=N)N)NC(=O)[C@H](CC(=O)O)NC(=O)[C@H](CC(C)C)NC(=O)[C@H](CCCCN)NC(=O)[C@H](CC(C)C)NC(=O)CNC(=O)[C@H](Cc2ccccc2)NC(=O)[C@@H](NC(=O)CNC(=O)[C@H](CCCCN)NC(=O)[C@H](CO)NC(=O)[C@H](CC(C)C)NC(=O)CNC(=O)[C@H](CCCCN)NC(=O)[C@H](CCCCN)NC(=O)[C@H](CC(N)=O)NC(=O)[C@H](C)NC(=O)CNC(=O)[C@H](CCCCN)NC(=O)[C@H](Cc2ccc(O)cc2)NC(=O)[C@H](CCCCN)NC(=O)[C@H](CCCNC(=N)N)NC(=O)[C@H](C)NC(=O)[C@H](CC(N)=O)NC(=O)[C@@H]2CCCN2C(=O)[C@H](Cc2c[nH]cn2)NC(=O)[C@H](CCC(=O)O)NC(=O)[C@@H](N)CCC(N)=O)CSSC[C@@H](C(=O)O)NC(=O)CNC(=O)[C@H](CC(C)C)NC(=O)CNC(=O)[C@H](CO)NC(=O)[C@H](CCSC)NC(=O)[C@H](CO)NC(=O)CNC1=O` [Analog BL] gave an AUC ([3]; male, rat, plasma, iv, i.v. 20 nmol/kg, read-out: area under the curve, AUC (converted)) of 0.026 µM·h and a half-life ([3]; male, rat, plasma, iv, i.v. 20 nmol/kg, read-out: half-life, T1/2) of 49.5 min.

From patent publication USRE48267E1, “Variants of C-type natriuretic peptide” (priority 2009, dated 2020)
